# Test results reported in US10820591B2, “Substituted sulfonyl amides for controlling animal pests” (Bayer Aktiengesellschaft, priority 2016, dated 2020).
# System: Meloidogyne incognita
# Test: Meloidogyne incognita test (sand, lettuce, gall formation)
# Assay type: in vivo
# Conditions: Meloidogyne incognita, 336 h, 4 ppm, after 14 days; read-out: nematicidal efficacy (formation of galls)
# Outline: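 Gall counts on lettuce roots were scored after 14 days in sand inoculated with root-knot nematode eggs/larvae plus compound diluted in water. Values run from 0% (galls as in untreated plants) to 100% (gall-free).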
row,SMILES,pest or weed control at 4 ppm [%]
1,CCOc1ccc(Cl)c(S(=O)(=O)NC(=O)c2cn(-c3c(F)cccc3F)cn2)c1 [I-356],90
2,CC(C)Oc1ccc(Cl)c(S(=O)(=O)NC(=O)c2cn(-c3c(F)cccc3F)cn2)c1 [I-357],90

# Same assay, conditions: Meloidogyne incognita, 336 h, 20 ppm, after 14 days; read-out: nematicidal efficacy (formation of galls)
row,SMILES,pest or weed control at 20 ppm [%]
1,COc1ccc(Cl)c(S(=O)(=O)NC(=O)c2cn(-c3cc(Br)cc(Br)c3)cn2)c1 [I-282],90
2,Cc1cc(C)cc(-n2cnc(C(=O)NS(=O)(=O)c3ccccc3Cl)c2)c1 [I-283],90
3,O=C(NS(=O)(=O)c1ccccc1Cl)c1cn(-c2cc(C(F)(F)F)cc(C(F)(F)F)c2)cn1 [I-285],90
4,COc1ccc(Cl)c(S(=O)(=O)NC(=O)c2cn(-c3cc(F)cc(F)c3)cn2)c1 [I-287],100
5,COc1ccc(Cl)c(S(=O)(=O)NC(=O)c2cn(-c3cc(C)cc(C)c3)cn2)c1 [I-288],100
6,O=C(NS(=O)(=O)c1ccccc1Cl)c1cn(-c2cc(Br)cc(Br)c2)cn1 [I-289],90
7,Cc1cc(-n2cnc(C(=O)NS(=O)(=O)c3ccccc3Cl)c2)cc(C(F)(F)F)c1 [I-290],100
8,O=C(NS(=O)(=O)c1c(Cl)cccc1Cl)c1cn(-c2cc(C(F)(F)F)cc(C(F)(F)F)c2)cn1 [I-292],90
9,O=C(NS(=O)(=O)c1c(Cl)cccc1Cl)c1cn(-c2cc(Br)cc(Br)c2)cn1 [I-293],100
10,O=C(NS(=O)(=O)c1ccccc1C(F)(F)F)c1cn(-c2cc(C(F)(F)F)cc(C(F)(F)F)c2)cn1 [I-294],90
11,O=C(NS(=O)(=O)c1ccccc1C(F)(F)F)c1cn(-c2cc(Cl)cc(C(F)(F)F)c2)cn1 [I-295],90
12,O=C(NS(=O)(=O)c1ccccc1C(F)(F)F)c1cn(-c2cc(F)cc(C(F)(F)F)c2)cn1 [I-296],90
13,O=C(NS(=O)(=O)c1c(Cl)cccc1Cl)c1cn(-c2cc(Br)cc(C(F)(F)F)c2)cn1 [I-297],90
14,COc1ccc(Cl)c(S(=O)(=O)NC(=O)c2cn(-c3cc(C(F)(F)F)cc(C(F)(F)F)c3)cn2)c1 [I-298],90
15,Cc1cc(C)cc(-n2cnc(C(=O)NS(=O)(=O)c3c(Cl)cccc3Cl)c2)c1 [I-299],90
16,O=C(NS(=O)(=O)c1ccccc1)c1cn(-c2cc(F)cc(C(F)(F)F)c2)cn1 [I-301],100
17,O=C(NS(=O)(=O)c1ccccc1Cl)c1cn(-c2cc(Cl)c(Cl)c(Cl)c2)cn1 [I-302],100
18,COc1ccc(Cl)c(S(=O)(=O)NC(=O)c2cn(-c3cc(Cl)c(Cl)c(Cl)c3)cn2)c1 [I-303],90
19,O=C(NS(=O)(=O)c1ccccc1)c1cn(-c2cc(Cl)c(Cl)c(Cl)c2)cn1 [I-304],90
20,O=C(NS(=O)(=O)c1c(Cl)cccc1Cl)c1cn(-c2cc(Cl)c(Cl)c(Cl)c2)cn1 [I-305],90
21,O=C(NS(=O)(=O)c1ccc(Cl)cc1Cl)c1cn(-c2cc(Cl)c(Cl)c(Cl)c2)cn1 [I-306],90
22,O=C(NS(=O)(=O)c1ccccc1Cl)c1cn(-c2cc(F)c(F)c(F)c2)cn1 [I-307],100
23,O=C(NS(=O)(=O)c1ccccc1Cl)c1cn(-c2cc(F)c(Br)c(F)c2)cn1 [I-308],90
24,O=C(NS(=O)(=O)c1ccc(Cl)cc1Cl)c1cn(-c2cc(Cl)cc(C(F)(F)F)c2)cn1 [I-309],90
25,O=C(NS(=O)(=O)c1ccccc1Cl)c1cn(-c2cc(F)cc(F)c2Cl)cn1 [I-310],100

row,SMILES,pest or weed control at 20 ppm [%]
1,O=C(NS(=O)(=O)c1ccccc1Cl)c1cn(-c2cc(Cl)c(Br)c(Cl)c2)cn1 [I-311],90
2,O=C(NS(=O)(=O)c1ccccc1)c1cn(-c2cc(Cl)c(Br)c(Cl)c2)cn1 [I-312],90
3,O=C(NS(=O)(=O)c1c(Cl)cccc1Cl)c1cn(-c2cc(Cl)c(Br)c(Cl)c2)cn1 [I-313],90
4,Cc1nc(C(=O)NS(=O)(=O)c2ccccc2)cn1-c1cc(Cl)cc(Cl)c1 [I-315],100
5,COc1ccc(Cl)c(S(=O)(=O)NC(=O)c2cn(-c3cc(Cl)cc(Cl)c3)c(C)n2)c1 [I-318],100
6,CCOc1ccc(Cl)c(S(=O)(=O)NC(=O)c2cn(-c3cc(Cl)cc(Cl)c3)c(C)n2)c1 [I-319],100
7,COc1ccc(Cl)c(S(=O)(=O)NC(=O)c2cn(-c3cc(F)cc(F)c3)c(C)n2)c1 [I-320],100
8,COc1ccc(Cl)c(S(=O)(=O)NC(=O)c2cn(-c3cc(F)cc(Cl)c3)c(C)n2)c1 [I-321],90
9,Cc1nc(C(=O)NS(=O)(=O)c2c(Cl)cccc2Cl)cn1-c1cc(F)cc(Cl)c1 [I-322],100
10,Cc1nc(C(=O)NS(=O)(=O)c2c(Cl)cccc2Cl)cn1-c1cc(F)cc(F)c1 [I-323],100
11,CCOc1ccc(Cl)c(S(=O)(=O)NC(=O)c2cn(-c3cc(Cl)cc(C(F)(F)F)c3)c(C)n2)c1 [I-324],100
12,Cc1nc(C(=O)NS(=O)(=O)c2c(Cl)cccc2Cl)cn1-c1cc(Cl)cc(C(F)(F)F)c1 [I-325],90
13,Cc1nc(C(=O)NS(=O)(=O)c2ccccc2Cl)cn1-c1cc(Cl)cc(C(F)(F)F)c1 [I-326],100
14,Cc1nc(C(=O)NS(=O)(=O)c2ccccc2Cl)cn1-c1cc(F)cc(Cl)c1 [I-327],100
15,Cc1nc(C(=O)NS(=O)(=O)c2cc(Cl)ccc2Cl)cn1-c1cc(Cl)cc(Cl)c1 [I-328],90
16,Cc1nc(C(=O)NS(=O)(=O)c2cc(Cl)ccc2Cl)cn1-c1cc(F)cc(F)c1 [I-329],100
17,Cc1nc(C(=O)NS(=O)(=O)c2ccccc2Cl)cn1-c1cc(F)cc(F)c1 [I-331],100
18,COc1ccc(Cl)c(S(=O)(=O)NC(=O)c2cn(-c3cc(F)cc(C(F)(F)F)c3)c(C)n2)c1 [I-332],100
19,Cc1nc(C(=O)NS(=O)(=O)c2ccccc2Cl)cn1-c1cc(F)cc(C(F)(F)F)c1 [I-334],100
20,COc1ccc(F)c(S(=O)(=O)NC(=O)c2cn(-c3cc(Cl)cc(C(F)(F)F)c3)cn2)c1 [I-335],90
21,COc1ccc(Br)c(S(=O)(=O)NC(=O)c2cn(-c3cc(Cl)cc(C(F)(F)F)c3)cn2)c1 [I-336],100
22,CCOc1ccc(Cl)c(S(=O)(=O)NC(=O)c2cn(-c3cc(Cl)cc(C(F)(F)F)c3)cn2)c1 [I-337],100
23,COc1ccc(F)c(S(=O)(=O)NC(=O)c2cn(-c3cc(F)cc(Cl)c3)cn2)c1 [I-338],100
24,COc1ccc(Br)c(S(=O)(=O)NC(=O)c2cn(-c3cc(F)cc(Cl)c3)cn2)c1 [I-339],100
25,CCOc1ccc(Cl)c(S(=O)(=O)NC(=O)c2cn(-c3cc(F)cc(Cl)c3)cn2)c1 [I-340],100

row,SMILES,pest or weed control at 20 ppm [%]
1,CC(C)Oc1ccc(Cl)c(S(=O)(=O)NC(=O)c2cn(-c3cc(F)cc(Cl)c3)cn2)c1 [I-341],100
2,Cc1ccc(C)c(S(=O)(=O)NC(=O)c2cn(-c3cc(F)cc(Cl)c3)cn2)c1 [I-342],90
3,O=C(NS(=O)(=O)c1cc(Cn2cccn2)ccc1Cl)c1cn(-c2cc(F)cc(Cl)c2)cn1 [I-343],90
4,CC(C)Oc1ccc(Cl)c(S(=O)(=O)NC(=O)c2cn(-c3cc(Cl)cc(C(F)(F)F)c3)cn2)c1 [I-344],90
5,Cc1ccc(C)c(S(=O)(=O)NC(=O)c2cn(-c3cc(Cl)cc(C(F)(F)F)c3)cn2)c1 [I-345],100
6,COc1ccc(F)c(S(=O)(=O)NC(=O)c2cn(-c3cc(Cl)cc(Cl)c3)cn2)c1 [I-347],100
7,COc1ccc(Br)c(S(=O)(=O)NC(=O)c2cn(-c3cc(Cl)cc(Cl)c3)cn2)c1 [I-348],100
8,CCOc1ccc(Cl)c(S(=O)(=O)NC(=O)c2cn(-c3cc(Cl)cc(Cl)c3)cn2)c1 [I-349],100
9,CC(C)Oc1ccc(Cl)c(S(=O)(=O)NC(=O)c2cn(-c3cc(Cl)cc(Cl)c3)cn2)c1 [I-350],100
10,Cc1ccc(C)c(S(=O)(=O)NC(=O)c2cn(-c3cc(Cl)cc(Cl)c3)cn2)c1 [I-351],100
11,COc1ccc(F)c(S(=O)(=O)NC(=O)c2cn(-c3cc(F)cc(C(F)(F)F)c3)cn2)c1 [I-352],100
12,COc1ccc(Br)c(S(=O)(=O)NC(=O)c2cn(-c3cc(F)cc(C(F)(F)F)c3)cn2)c1 [I-353],100
13,CC(C)Oc1ccc(Cl)c(S(=O)(=O)NC(=O)c2cn(-c3cc(F)cc(C(F)(F)F)c3)cn2)c1 [I-354],100
14,Cc1ccc(C)c(S(=O)(=O)NC(=O)c2cn(-c3cc(F)cc(C(F)(F)F)c3)cn2)c1 [I-355],100
15,Cc1ccc(C)c(S(=O)(=O)NC(=O)c2cn(-c3c(F)cccc3F)cn2)c1 [I-358],100
16,COc1ccc(Cl)c(S(=O)(=O)NC(=O)c2cn(-c3c(F)cccc3F)cn2)c1 [I-359],90
17,COc1ccc(F)c(S(=O)(=O)NC(=O)c2cn(-c3c(F)cccc3F)cn2)c1 [I-360],90
18,COc1ccc(Br)c(S(=O)(=O)NC(=O)c2cn(-c3c(F)cccc3F)cn2)c1 [I-361],90
19,Cc1nc(C(=O)NS(=O)(=O)c2c(Cl)cccc2Cl)cn1-c1c(F)cccc1F [I-362],90
20,COc1ccc(Cl)c(S(=O)(=O)NC(=O)c2cn(-c3c(F)cccc3F)c(C)n2)c1 [I-363],90
21,CCOc1ccc(Cl)c(S(=O)(=O)NC(=O)c2cn(-c3c(F)cccc3F)c(C)n2)c1 [I-364],90
22,Cc1nc(C(=O)NS(=O)(=O)c2cc(Cl)ccc2Cl)cn1-c1c(F)cccc1F [I-365],100
23,Cc1nc(C(=O)NS(=O)(=O)c2cc(OC(C)C)ccc2Cl)cn1-c1cc(Cl)cc(Cl)c1 [I-366],100
